Source: patent publication US10442800B2, “Crystal forms of NBI-98854, preparation method and use thereof” (Crystal Pharmaceutical (Suzhou) Co., Ltd., priority 2016, dated 2019)

What was measured:
Type in all cases: physicochemical
[1] = Hygroscopicity experiment by Dynamic Vapor Sorption (DVS); conditions: 25° C.; for hygroscopicity class: Chinese Pharmacopoeia 2015 definition, 80% RH; for weight gain: DVS, at 80% RH
Description: Dynamic Vapor Sorption (DVS) is measured via a SMS (Surface Measurement Systems Ltd.) intrinsic DVS. Its control software is DVS-Intrinsic control software, and its analysis software is DVS-Intrinsic analysis software. Typical Parameters for DVS test are as follows:
Gas and flow rate: N2, 200 mL/min
RH range: 0% RH to 95% RH
14.3 mg of Form CS1 was placed in a DVS instrument and underwent a cycle of 0%-95%-0% RH. The DVS curve is substantially as depicted in FIG. 12. A weight gain of 0.08% is observed at 80% RH.
8.6 mg of Form CS2 was placed in a DVS instrument and underwent a cycle of 40%-95%-0%-95% RH. A weight gain of 0.56% is observed at 80% RH.

[2] = Stability assessment under storage (XRPD for crystalline form, HPLC for chemical purity); conditions: for stability (overall conclusion): 25° C./60% RH and 40° C./75% RH for 1 month; for Purity / Initial purity: HPLC; for Initial purity: initial sample before storage; for Crystalline form: XRPD
From the text: X-ray powder diffraction pattern in the present disclosure was acquired by a Panalytical Empyrean X-ray powder diffractometer. The parameters of the X-ray powder diffraction method of the present disclosure were as follows:
High Performance Liquid Chromatography (HPLC) data in the present disclosure are collected from Agilent 1100 with diode array detector (DAD). The HPLC method parameters for purity test in the present disclosure are as follows:
1. Column: Waters Xbridge C18 150×4.6 mm, 5 μm
2. Mobile Phase: A: 0.1% TFA in H2O • B: 0.1% TFA in Acetonitrile • Gradient: […]
4. Injection Volume: 10 μL
5. Detection wavelength: 230 nm
6. Column Temperature: 40° C.
7. Diluent: 50% Acetonitrile
(§1) Form CS1 in the present disclosure was stored under different conditions of 25° C./60% RH and 40° C./75% RH for 1 month. Samples were taken at the end of 1 month. XRPD and HPLC were used to test the crystalline form and chemical purity. The XRPD overlay is shown in FIG. 14 (Above is the initial sample, in the middle is the sample placed under 25° C./60% RH for 1 month, at the bottom is the sample placed under 40° C./75% RH for 1 month).
as §1, with “CS2” for “CS1”, “The experimental results are summarized in Table 9. the” for “The”, “15” for “14”

[3] = Morphology test by polarized light microscopy (PLM); conditions: PLM image
Description: Form CS1 and Form CS2 in the present disclosure were tested by polarized light microscopy, and the results were depicted in FIG. 16 and FIG. 17. The morphologies of Form CS1 and Form CS2 are needle and block, respectively. Both forms disperse well and have little agglomeration. It can be seen from the PLM images that the morphologies of Form CS1 and Form CS2 in the present disclosure are suitable for the development of drug product.

SMILES | hygroscopicity class [1] | weight gain [1] [%] | stability (overall conclusion) [2] | Purity ([2]; after 25° C./60% RH (1 month)) [%] | Purity ([2]; after 40° C./75% RH (1 month)) [%] | Initial purity [2] [%] | Crystalline form ([2]; after 25° C./60% RH (1 month)) | Crystalline form ([2]; after 40° C./75% RH (1 month)) | morphology [3]
COc1cc2c(cc1OC)[C@H]1C[C@@H](OC(=O)[C@@H](N)C(C)C)[C@H](CC(C)C)CN1CC2 [Form CS1, (S)-2-amino-3-methyl-butyric acid (2R,3R,11bR)-3-isobutyl-9,10-dimethoxy-1,3,4 6,7,11b-hexahydro-2H-pyrido[2,1-a]isoquinolin-2-yl ester] | almost non hygroscopic | 0.08 | good stability | 98.21 | 97.76 | 98.02 | unchanged | unchanged | needle
COc1cc2c(cc1OC)[C@H]1C[C@@H](OC(=O)[C@@H](N)C(C)C)[C@H](CC(C)C)CN1CC2 [Form CS2, (S)-2-amino-3-methyl-butyric acid (2R,3R,11bR)-3-isobutyl-9,10-dimethoxy-1,3,4 6,7,11b-hexahydro-2H-pyrido[2,1-a]isoquinolin-2-yl ester] | slightly hygroscopic | 0.56 | good stability | 98.60 | 97.38 | 98.34 | unchanged | unchanged | block
